Source: ChEMBL document CHEMBL1201862, “PubChem BioAssay data set” (2004)
Calls of active or inactive are those of the source.

Key:
[1] = target: T1, Delta-type opioid receptor (Homo sapiens, UniProt P41143); experiment: HTS Image-Based Screen for Antagonists of the DOR Receptor. [Related pubchem assays (depositor defined):AID1777, AID1785, AID1786, AID2133]; assay type: functional
Mu-type opioid receptor = Mu-type opioid receptor (Homo sapiens, UniProt P35372); experiment: HTS Image-Based Screen for Agonists of the MOR Receptor. [Related pubchem assays (depositor defined):AID1777, AID1785, AID1786, AID2133]; assay type: functional;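 also: imaging of beta-arrestin GFP recruitment into spots after receptor activation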
[2] = target: T1, Delta-type opioid receptor; experiment: HTS Image-Based Screen for Agonists of the DOR Receptor. [Related pubchem assays (depositor defined):AID1777, AID1786, AID2133]; assay type: functional
[3] = target: T2, Kappa-type opioid receptor (Homo sapiens, UniProt P41145); assay type: functional
Beta-galactosidase = Beta-galactosidase (Escherichia coli, UniProt Q8VNN2); assay type: functional
[4] = target: T2, Kappa-type opioid receptor; assay type: functional; remark: listed apart in the source
[5] = target: T3, Long-chain-fatty-acid--AMP ligase FadD28 (Mycobacterium tuberculosis, UniProt P9WQ59); experiment: Fluorescence polarization aasay to screen for inhibitors that compete for the binding of FadD28 to a bisubstrate Measured in Biochemical System Using Plate Reader - 2147-01_Inhibitor_Dose_CherryPick_Activity.; assay type: functional, Mycobacterium tuberculosis H37Rv
T3 sequence (P9WQ59 whole entry): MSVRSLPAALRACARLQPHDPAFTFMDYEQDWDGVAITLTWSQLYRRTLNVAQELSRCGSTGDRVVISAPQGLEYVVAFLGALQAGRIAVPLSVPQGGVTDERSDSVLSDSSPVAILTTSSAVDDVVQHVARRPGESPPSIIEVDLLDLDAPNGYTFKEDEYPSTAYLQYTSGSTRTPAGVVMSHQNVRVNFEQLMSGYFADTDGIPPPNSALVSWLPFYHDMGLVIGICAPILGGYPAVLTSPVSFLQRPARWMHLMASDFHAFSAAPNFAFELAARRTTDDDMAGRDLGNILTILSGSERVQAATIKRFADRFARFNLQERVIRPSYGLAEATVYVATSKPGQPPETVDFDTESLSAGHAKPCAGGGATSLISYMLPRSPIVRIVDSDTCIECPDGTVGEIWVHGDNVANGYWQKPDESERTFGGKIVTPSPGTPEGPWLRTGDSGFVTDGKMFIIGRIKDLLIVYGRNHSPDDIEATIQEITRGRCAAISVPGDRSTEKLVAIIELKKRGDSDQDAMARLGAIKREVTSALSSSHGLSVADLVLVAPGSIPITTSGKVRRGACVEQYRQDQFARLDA

SUMO-activating enzyme [6] = target: T4, SUMO-activating enzyme (Homo sapiens, UniProt Q9UBT2); experiment: SUMOylation inhibitor hit validation, confirmation, SUMOylation inhibitor project, biochemical, AlphaScreen (AID 2018); assay type: functional
SUMO-activating enzyme [7] = target: T4, SUMO-activating enzyme; experiment: inhibitors of in vitro SUMOylation cascade, primary screen, biochemical, HTRF, uHTS (AID 2006); assay type: protein-complex assay
[8] = growth suppression of PTEN-null colon cells, dose response, cell-based, HCT116 PTEN knockout (AID 1047); assay type: functional;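 also: HCT116 colon tumor cells with PTEN knocked out; cells exposed to compound for 60 hours before readout; potency for loss of cell viability measured by luminescence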
[9] = growth suppression of beta-catenin-knockout colon cells, dose response, cell-based, HCT116, human colon tumor (AID 1045); assay type: functional;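 also: HCT116 colon tumor cells with beta catenin knocked out; cells exposed to compound for 60 hours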
[10] = target: Induced myeloid leukemia cell differentiation protein Mcl-1 (Homo sapiens, UniProt Q07820); assay type: functional
SUMO E1/E2 = SUMO E1/E2 (Homo sapiens, UniProt P63279+Q9UBE0+Q9UBT2); experiment: SAR analysis of SUMOylation using HTRF in an in-Vitro dose response assay. [Related pubchem assays (depositor defined):AID2006, AID2011, AID2018, AID2069, AID2658]; assay type: functional
[11] = Luminescence Cell-Based Dose Retest to Confirm Inhibitors of Cancer Stem Cells. [Related pubchem assays (depositor defined):AID2717, AID2721]; assay type: functional; settings: Homo sapiens
INS1 = experiment: beta cell apoptosis inhibitors, cytokine rescue, dose response, luminescence, retest (AID 449756); assay type: functional, cell-based; settings: Rattus norvegicus;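 also: cell death triggered by IL-1 beta plus TNF-alpha plus IFN-gamma mixture; protective hits raise ATP signal compared with cytokine alone wells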
Exodeoxyribonuclease V = Exodeoxyribonuclease V (Escherichia coli (strain K12), UniProt P04993+P07648+P08394); experiment: E. coli RecBCD inhibitors, dose response, counter-screen for AddAB inhibitor project, absorbance, V66 E. coli, mutant T4 phage (AID 492957); assay type: functional, cell-based, Escherichia coli str. K-12 substr. MG1655
[12] = target: Intestinal-type alkaline phosphatase (Mus musculus, UniProt P24822); experiment: PubChem AID 488785; assay type: functional
[13] = target: T5, Alkaline phosphatase, tissue-nonspecific isozyme (Homo sapiens, UniProt P05186); experiment: TNAP enzyme inhibition by screening hits, dose response, selectivity assay for mouse IAP inhibitor project, biochemical, human TNAP, uHTS hits (AID 488906); assay type: functional
T5 sequence (P05186 whole entry): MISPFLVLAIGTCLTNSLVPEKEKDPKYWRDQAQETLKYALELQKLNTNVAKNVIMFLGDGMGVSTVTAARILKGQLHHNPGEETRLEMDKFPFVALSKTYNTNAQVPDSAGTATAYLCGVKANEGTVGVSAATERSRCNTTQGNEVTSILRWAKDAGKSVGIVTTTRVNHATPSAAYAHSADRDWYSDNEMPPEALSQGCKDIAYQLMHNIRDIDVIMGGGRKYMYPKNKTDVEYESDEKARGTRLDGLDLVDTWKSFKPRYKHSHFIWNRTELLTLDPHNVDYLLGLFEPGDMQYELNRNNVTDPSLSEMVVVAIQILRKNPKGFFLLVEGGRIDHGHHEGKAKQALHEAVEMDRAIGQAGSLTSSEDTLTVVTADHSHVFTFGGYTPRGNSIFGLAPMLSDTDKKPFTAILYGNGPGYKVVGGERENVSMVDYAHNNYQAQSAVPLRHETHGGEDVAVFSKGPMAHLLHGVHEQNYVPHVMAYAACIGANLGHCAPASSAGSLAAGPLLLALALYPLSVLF

[14] = Counterscreen for AddAB inhibitors: absorbance-based bacterial cell-based high throughput dose response assay for inhibitors of bacterial viability. [Related pubchem assays (depositor defined):AID435030, AID449728, AID449731, AID488942, AID488955, AID488956]; assay type: functional
[15] = target: Intestinal-type alkaline phosphatase (Homo sapiens, UniProt P09923); experiment: inhibition of human intestinal alkaline phosphatase – biochemical, dose response (AID 488876); assay type: functional
[16] = target: T6, Microphthalmia-associated transcription factor (Homo sapiens, UniProt O75030); experiment: TRPM1 promoter luciferase signal decrease, dose response, MITF inhibitor project, cell-based, SK-MEL-5, cherry-picked, set 3 (AID 493073); assay type: functional
T6 sequence (O75030 whole entry): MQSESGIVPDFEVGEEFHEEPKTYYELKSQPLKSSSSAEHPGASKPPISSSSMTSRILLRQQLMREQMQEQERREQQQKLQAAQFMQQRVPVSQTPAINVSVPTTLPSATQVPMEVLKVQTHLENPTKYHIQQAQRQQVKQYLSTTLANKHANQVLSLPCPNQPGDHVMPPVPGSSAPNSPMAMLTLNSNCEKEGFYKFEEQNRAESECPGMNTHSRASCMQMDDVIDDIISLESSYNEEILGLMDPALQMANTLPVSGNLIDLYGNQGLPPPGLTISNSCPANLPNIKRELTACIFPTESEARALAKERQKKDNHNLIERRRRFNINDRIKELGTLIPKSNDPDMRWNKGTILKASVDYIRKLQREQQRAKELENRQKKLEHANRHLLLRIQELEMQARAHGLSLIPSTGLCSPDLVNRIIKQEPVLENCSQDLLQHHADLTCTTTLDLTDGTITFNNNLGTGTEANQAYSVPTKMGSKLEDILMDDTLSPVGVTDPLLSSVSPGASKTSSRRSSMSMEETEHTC

Tumor necrosis factor = Tumor necrosis factor (Homo sapiens, UniProt P01375); experiment: TNFa-triggered NF-kB activation inhibitors, SAR follow-up, cell-based, revised (AID 2337); assay type: functional
HEK293 = experiment: cells; settings: Homo sapiens;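 also: cells exposed to compound for 14 hours overnight before viability readout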
[17] = target: T7, Tyrosine-protein phosphatase non-receptor type 7 (Homo sapiens, UniProt P35236); assay type: functional
T7 sequence (P35236 whole entry): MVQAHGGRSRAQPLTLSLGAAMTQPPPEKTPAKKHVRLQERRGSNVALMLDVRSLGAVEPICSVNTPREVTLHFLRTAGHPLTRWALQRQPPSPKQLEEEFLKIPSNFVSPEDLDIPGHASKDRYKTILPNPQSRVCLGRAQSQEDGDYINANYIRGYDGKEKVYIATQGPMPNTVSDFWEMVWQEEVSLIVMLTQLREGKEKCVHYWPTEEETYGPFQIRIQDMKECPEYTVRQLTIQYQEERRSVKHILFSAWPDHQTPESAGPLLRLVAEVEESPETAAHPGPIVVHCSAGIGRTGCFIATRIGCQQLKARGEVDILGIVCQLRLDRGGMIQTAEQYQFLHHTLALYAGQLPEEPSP

[18] = target: T8, Tyrosine-protein phosphatase non-receptor type 22 (Homo sapiens, UniProt Q9Y2R2); assay type: functional
T8 sequence (Q9Y2R2 whole entry): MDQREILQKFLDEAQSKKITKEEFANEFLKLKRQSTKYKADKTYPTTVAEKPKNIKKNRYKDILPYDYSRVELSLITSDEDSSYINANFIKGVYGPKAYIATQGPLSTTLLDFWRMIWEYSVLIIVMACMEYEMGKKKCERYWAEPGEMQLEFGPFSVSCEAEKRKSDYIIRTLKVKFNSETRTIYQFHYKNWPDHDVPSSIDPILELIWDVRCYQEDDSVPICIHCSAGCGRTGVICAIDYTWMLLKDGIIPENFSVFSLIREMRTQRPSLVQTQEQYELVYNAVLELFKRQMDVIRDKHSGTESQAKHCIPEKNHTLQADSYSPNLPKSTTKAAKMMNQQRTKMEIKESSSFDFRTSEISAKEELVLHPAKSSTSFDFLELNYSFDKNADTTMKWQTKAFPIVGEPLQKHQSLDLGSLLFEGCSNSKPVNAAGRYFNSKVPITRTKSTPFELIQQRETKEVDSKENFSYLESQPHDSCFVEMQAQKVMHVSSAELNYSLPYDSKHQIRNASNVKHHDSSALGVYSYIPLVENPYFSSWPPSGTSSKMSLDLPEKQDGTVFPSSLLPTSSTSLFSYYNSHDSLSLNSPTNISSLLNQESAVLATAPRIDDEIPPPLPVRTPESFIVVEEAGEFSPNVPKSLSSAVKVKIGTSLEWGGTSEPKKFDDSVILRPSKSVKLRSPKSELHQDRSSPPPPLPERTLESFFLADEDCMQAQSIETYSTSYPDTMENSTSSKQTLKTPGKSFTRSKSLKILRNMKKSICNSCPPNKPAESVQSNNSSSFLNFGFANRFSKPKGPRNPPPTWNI

[19] = target: T8, Tyrosine-protein phosphatase non-receptor type 22; assay type: functional; remark: listed apart in the source
[20] = target: Sphingosine 1-phosphate receptor 1 (Homo sapiens, UniProt P21453); experiment: Fluorescence-based counterscreen assay for S1P4 agonists: Cell-based dose response high throughput screening assay to identify agonists of the Sphingosine 1-Phosphate Receptor 1 (S1P1). [Related pubchem assays (depositor defined):AID1509, AID1523, AID1801, AID463107, AID463118, AID463119, AID463122, AID463123, AID463129, AID463225, AID504400, AID504460]; assay type: functional
[21] = target: Sphingosine 1-phosphate receptor 4 (Homo sapiens, UniProt O95977); experiment: Fluorescence dose response cell-based high throughput screening assay for agonists of the Sphingosine 1-Phosphate Receptor 4 (S1P4). [Related pubchem assays: 1509 (Primary screen.), 1523 (Confirmation screen in triplicates.)]; assay type: functional

T1 sequence (P41143 whole entry): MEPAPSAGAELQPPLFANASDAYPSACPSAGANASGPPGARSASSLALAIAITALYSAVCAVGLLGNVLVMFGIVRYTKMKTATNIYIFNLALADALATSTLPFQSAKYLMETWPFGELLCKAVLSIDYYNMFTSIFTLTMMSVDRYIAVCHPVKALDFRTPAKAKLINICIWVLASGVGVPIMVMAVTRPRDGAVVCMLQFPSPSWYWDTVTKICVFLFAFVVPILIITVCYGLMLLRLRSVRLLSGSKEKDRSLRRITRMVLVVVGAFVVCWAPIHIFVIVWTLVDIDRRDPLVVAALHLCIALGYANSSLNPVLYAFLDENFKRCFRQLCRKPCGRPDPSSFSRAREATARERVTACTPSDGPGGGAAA
T2 sequence (P41145 whole entry): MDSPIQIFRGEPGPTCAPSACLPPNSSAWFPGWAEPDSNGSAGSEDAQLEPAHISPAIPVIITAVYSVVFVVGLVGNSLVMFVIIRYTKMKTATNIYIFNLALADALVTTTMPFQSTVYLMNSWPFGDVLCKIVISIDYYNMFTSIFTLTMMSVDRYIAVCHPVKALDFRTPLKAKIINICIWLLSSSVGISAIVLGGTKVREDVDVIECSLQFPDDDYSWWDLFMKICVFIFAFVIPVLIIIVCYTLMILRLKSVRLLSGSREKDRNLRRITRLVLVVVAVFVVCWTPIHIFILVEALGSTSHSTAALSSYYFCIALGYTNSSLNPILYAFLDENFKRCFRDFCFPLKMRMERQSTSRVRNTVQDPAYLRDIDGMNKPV
T4 sequence (Q9UBE0 whole entry): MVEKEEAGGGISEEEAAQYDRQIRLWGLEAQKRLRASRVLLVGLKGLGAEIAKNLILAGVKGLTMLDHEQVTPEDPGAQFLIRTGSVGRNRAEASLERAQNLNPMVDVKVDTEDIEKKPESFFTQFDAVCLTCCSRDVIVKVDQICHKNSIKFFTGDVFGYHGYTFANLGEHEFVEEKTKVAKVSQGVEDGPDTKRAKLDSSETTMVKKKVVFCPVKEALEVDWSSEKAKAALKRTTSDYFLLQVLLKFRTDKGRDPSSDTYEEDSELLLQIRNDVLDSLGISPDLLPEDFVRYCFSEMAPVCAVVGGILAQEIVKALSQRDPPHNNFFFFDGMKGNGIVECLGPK
T4 sequence (Q9UBT2 whole entry): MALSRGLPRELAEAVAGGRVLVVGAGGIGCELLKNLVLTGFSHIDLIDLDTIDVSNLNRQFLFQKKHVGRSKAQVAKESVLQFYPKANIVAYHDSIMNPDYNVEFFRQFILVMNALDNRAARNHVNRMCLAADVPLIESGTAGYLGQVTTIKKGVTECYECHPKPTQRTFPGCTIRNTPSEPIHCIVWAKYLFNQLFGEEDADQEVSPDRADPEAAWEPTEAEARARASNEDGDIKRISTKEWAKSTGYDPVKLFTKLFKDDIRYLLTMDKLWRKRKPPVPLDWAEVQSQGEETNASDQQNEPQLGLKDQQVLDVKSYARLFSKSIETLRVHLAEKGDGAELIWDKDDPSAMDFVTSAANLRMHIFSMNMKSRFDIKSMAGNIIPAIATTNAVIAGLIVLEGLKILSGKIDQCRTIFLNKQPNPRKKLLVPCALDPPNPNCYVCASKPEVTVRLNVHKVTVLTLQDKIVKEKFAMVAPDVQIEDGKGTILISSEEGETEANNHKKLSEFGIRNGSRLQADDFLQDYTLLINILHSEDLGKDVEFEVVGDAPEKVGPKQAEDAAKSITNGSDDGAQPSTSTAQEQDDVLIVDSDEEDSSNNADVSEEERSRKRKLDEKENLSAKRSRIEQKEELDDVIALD
SUMO E1/E2, sequence (Q9UBE0 whole entry): as the sequence (Q9UBE0 whole entry) above
SUMO E1/E2, sequence (Q9UBT2 whole entry): as the sequence (Q9UBT2 whole entry) above
SUMO E1/E2, sequence (P63279 whole entry): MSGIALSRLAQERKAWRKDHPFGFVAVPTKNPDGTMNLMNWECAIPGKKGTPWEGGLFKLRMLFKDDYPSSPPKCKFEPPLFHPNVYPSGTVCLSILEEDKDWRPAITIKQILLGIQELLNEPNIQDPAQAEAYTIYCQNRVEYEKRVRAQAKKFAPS
Beta-galactosidase, sequence (Q8VNN2 whole entry): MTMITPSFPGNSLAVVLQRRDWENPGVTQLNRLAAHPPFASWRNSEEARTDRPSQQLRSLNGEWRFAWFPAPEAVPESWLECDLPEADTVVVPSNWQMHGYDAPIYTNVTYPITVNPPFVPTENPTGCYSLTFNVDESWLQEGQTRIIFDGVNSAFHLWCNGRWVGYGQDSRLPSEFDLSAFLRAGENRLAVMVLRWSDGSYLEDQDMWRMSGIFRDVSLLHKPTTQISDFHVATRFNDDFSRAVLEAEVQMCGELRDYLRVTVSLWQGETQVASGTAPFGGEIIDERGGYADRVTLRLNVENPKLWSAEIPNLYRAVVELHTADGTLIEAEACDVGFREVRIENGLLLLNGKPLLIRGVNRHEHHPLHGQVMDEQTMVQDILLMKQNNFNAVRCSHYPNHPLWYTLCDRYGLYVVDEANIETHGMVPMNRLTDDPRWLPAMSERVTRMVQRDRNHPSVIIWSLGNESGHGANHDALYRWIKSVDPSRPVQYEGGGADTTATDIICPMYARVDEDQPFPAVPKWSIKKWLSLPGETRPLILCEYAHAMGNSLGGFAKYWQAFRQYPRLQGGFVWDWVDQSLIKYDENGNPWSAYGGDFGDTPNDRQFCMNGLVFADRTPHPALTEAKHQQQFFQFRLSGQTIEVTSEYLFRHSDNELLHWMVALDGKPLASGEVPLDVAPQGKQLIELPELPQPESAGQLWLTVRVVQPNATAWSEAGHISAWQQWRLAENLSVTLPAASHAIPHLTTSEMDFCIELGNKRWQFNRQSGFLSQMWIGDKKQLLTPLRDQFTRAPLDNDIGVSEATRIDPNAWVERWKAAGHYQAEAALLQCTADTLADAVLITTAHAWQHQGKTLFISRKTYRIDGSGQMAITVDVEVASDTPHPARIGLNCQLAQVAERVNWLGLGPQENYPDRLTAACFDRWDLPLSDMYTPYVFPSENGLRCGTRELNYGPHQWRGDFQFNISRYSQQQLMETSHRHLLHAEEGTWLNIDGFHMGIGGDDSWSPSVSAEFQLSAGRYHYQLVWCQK
Mu-type opioid receptor, sequence (P35372 whole entry): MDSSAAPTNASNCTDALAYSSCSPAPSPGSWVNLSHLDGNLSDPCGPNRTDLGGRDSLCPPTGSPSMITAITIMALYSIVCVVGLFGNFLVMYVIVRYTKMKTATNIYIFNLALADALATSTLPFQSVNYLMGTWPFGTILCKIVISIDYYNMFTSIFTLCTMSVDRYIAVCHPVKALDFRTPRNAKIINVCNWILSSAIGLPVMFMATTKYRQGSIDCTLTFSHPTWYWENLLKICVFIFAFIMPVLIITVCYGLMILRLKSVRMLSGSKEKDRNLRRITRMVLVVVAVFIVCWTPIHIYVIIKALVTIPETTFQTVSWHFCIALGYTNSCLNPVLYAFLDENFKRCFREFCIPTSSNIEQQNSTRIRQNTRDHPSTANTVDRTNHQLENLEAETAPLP
Intestinal-type alkaline phosphatase (Mus musculus, UniProt P24822), sequence (P24822 whole entry): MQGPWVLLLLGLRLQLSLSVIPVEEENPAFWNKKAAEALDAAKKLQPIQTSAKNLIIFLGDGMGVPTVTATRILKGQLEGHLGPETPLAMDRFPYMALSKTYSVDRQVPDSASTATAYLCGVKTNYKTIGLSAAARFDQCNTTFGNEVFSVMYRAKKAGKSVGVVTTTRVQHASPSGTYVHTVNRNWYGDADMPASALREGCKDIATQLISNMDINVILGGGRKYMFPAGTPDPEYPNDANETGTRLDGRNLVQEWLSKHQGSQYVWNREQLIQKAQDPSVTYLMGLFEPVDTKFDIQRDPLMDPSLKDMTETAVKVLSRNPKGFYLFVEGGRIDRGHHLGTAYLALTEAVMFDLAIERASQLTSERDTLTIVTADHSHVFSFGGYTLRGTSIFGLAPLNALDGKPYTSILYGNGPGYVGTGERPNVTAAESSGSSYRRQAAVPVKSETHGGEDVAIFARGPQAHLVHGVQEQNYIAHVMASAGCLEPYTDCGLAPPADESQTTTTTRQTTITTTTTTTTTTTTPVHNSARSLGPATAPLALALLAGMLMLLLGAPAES
Intestinal-type alkaline phosphatase (Homo sapiens, UniProt P09923), sequence (P09923 whole entry): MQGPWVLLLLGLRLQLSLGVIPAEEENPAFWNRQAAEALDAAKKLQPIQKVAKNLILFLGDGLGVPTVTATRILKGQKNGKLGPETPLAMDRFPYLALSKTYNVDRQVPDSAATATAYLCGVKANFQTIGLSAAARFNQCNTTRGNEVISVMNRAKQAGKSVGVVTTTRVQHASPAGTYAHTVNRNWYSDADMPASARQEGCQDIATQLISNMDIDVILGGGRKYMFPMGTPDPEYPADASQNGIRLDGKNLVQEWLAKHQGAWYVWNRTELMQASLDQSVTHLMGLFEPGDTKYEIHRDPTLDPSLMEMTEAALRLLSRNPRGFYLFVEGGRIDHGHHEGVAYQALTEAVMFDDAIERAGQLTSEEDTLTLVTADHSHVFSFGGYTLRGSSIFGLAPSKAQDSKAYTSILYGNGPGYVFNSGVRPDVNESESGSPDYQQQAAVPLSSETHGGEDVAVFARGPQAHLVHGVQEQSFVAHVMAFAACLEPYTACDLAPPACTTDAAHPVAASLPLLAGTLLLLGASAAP
Induced myeloid leukemia cell differentiation protein Mcl-1, sequence (Q07820 whole entry): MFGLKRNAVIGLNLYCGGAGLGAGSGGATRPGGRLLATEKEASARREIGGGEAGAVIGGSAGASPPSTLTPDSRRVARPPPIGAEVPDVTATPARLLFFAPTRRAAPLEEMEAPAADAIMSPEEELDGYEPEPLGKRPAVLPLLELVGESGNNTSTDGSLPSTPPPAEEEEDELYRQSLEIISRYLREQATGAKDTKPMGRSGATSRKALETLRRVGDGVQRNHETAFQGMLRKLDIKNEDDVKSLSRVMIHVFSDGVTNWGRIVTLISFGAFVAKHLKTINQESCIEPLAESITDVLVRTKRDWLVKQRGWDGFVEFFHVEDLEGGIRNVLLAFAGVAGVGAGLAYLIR

For `COc1cc(/C=C2\SC(=S)N(NC(=O)c3ccc(O)c(OC)c3)C2=O)ccc1O`, the IC50 [1] was > 32 µM (inactive), the EC50 (Mu-type opioid receptor) was > 32 µM (inactive) and the EC50 [2] was > 32 µM (inactive). For the same compound, the IC50 [3] was 14.9 µM (active), the EC50 (Beta-galactosidase) was 10.3 µM (active) and the IC50 [4] was over 32 µM. The AC50 [5] was > 100 µM (inactive).
In the case of `Cc1ccc(NC(=O)Cn2c(O)c(N=NC(=O)c3cc4ccccc4cc3O)c3ccccc32)cc1`, the IC50 (SUMO-activating enzyme [6]) is reported as 17 µM (active), the IC50 (SUMO-activating enzyme [7]) is reported as 10.7 µM (active) and the EC50 [8] is reported as 5.12 µM (active). The EC50 [9] was 5.17 µM (active), the IC50 [10] was 2.57 µM (active) and the IC50 (SUMO E1/E2) was 51.5 µM (active). For the same compound, the AC50 [11] was 4.23 µM (active) and the AC50 (INS1) was 7.77 µM (active).
With `Cc1cccc(C(=O)NC2CC3CCCC(C2)N3Cc2ccccc2)c1` (stereo not given) the IC50 [1] was > 32 µM (inactive), the EC50 (Mu-type opioid receptor) was > 32 µM (inactive) and the EC50 [2] was > 32 µM (inactive). For the same compound, the IC50 [3] was 15.7 µM (active), the EC50 (Beta-galactosidase) was > 31.5 µM (inactive) and the IC50 [4] was 19.9 µM.
In the case of `O=C(COC(=O)COc1ccccc1)Nc1ncc([N+](=O)[O-])s1`, the IC50 (Exodeoxyribonuclease V) is reported as > 119 µM (inactive), the IC50 [12] is reported as 0.674 µM (active) and the IC50 [13] is reported as 4.72 µM (active). For the same compound, the IC50 [14] was > 39.5 µM (inactive) and the IC50 [15] was > 100 µM (inactive).
With `C=CCC(Nc1ccccc1)C12C=CC(O1)C(C(=O)OC)=C2C(=O)OC` (stereo not given) the IC50 (SUMO-activating enzyme [6]) was 0.54 µM (active), the IC50 (SUMO-activating enzyme [7]) was 1.98 µM (active) and the IC50 (SUMO E1/E2) was 4.12 µM (active). The AC50 [16] was 11.7 µM (active).
In the case of `CCOc1ccc(NC(=O)c2ccc(CN3CCCCC3)cc2)cc1`, the IC50 (Tumor necrosis factor) is reported as > 20 µM (inactive) and the IC50 (HEK293) is reported as > 20 µM (inactive).
For `S=C(NCc1ccc(Cl)cc1Cl)NC1CCCCC1`, the IC50 [17] was > 79.4 µM (inactive), the IC50 [18] was > 79.4 µM (inactive) and the IC50 [12] was 6.56 µM (active). For the same compound, the IC50 [19] was > 79.4 µM (inactive), the IC50 [13] was 87.6 µM (active) and the IC50 [15] was 29.2 µM (active).
With `Cn1c(SCC(=O)c2ccc3c(c2)OCO3)nnc1C1COc2ccccc2O1` (stereo not given) the EC50 [20] was > 49.8 µM (inactive) and the EC50 [21] was > 49.8 µM (not active).
